The structures appear in SMILES notation. Bounds are passed on as bounds.

In test [1] the test system is Mouse macrophages (RAW264.7). The test can be described thus: Toxicity to macrophages by MTT method. In kind it is cell-based. To be noted: RAW264.7, MTT, 48 h culture with compound. The procedure: (1) the Toxicity to Macrophages was Tested by MTT Method:
Mouse macrophages (RAW264.7) were taken, inoculated into 96-well plates ([…]) at a concentration of 3×10^4/mL and cultured in an incubator of 5% CO2 at 37° C. for 18 h. After the cells adhered to the wall, the supernate was discarded and compounds of different concentrations were added to continue the culture for 48 h. 0.5 mg/mL of MTT was added. After continued culture for 4 h, […] of DMSO was added to each well, and then shaken on a shaker for 10 min. Absorbance (OD value) at 570 nm was measured by a microplate reader, and IC50 was calculated by Prism software.

Test [2] has as its system LPS-induced NO production in macrophages (RAW264.7). The test can be described thus: Inhibition of LPS-induced NO production in macrophages. To be noted: LPS-induced RAW264.7, 24 h. Also on record: dose or concentration left out as unconfirmed. Type of test: cell-based, mouse. The procedure: In this test example, the styrene derivatives prepared by embodiments 2-20 were tested for their toxicities to mouse macrophages (RAW264.7). The nitric oxide (NO) inhibition assays using lipopolysaccharide (LPS)-induced RAW264.7 cells were also performed to evaluate their anti-inflammatory activities (Test methods refer to Zhou W. et al. Biomed Pharmacother 2020, 131:110696.).
(2) Inhibition of LPS-Induced NO Production Activity in Macrophages was Tested (the Test Method Refers to Biomed Pharmacother. 2020 November; 131:110696):
Mouse macrophages (RAW264.7) were taken, inoculated into 96-well plates ([…]) at a concentration of 5×10^5/mL and cultured in a 5% CO2 incubator at 37° C. for 18 h. Then, the compound (final concentration: […]) and LPS (final concentration: 5 µg/mL) were added into a cell culture solution and cultured at 37° C. for 24 h. Then, the supernatant of the cell culture solution was taken and placed into a new 96-well plate by 50 µL per well; and then 50 µL of solution A and 50 µL of solution B of a Beyotime NO kit were added.
After culturing in the incubator at 37° C. for 10 min, the absorbance (OD value) at 540 nm was tested.

As a reminder, the IC50 is the concentration at which inhibition is half-maximal. Regarding `CC(C)c1c(O)cc(/C=C/c2ccoc2)cc1O` [No 2], the IC50 in test [1] (Mus musculus) was > 1 µM. The “Inhibitory activity against nitric oxide production (%)” value (from here on “Inhibitory activity … (%)”) in test [2] is reported as <50%.
Turning to `CC(C)c1c(O)cc(/C=C/c2cncs2)cc1O` [No 3], in test [1] (Mus musculus), the IC50 is > 1 µM. Further, the “Inhibitory activity … (%)” value in test [2] was >50%.
Consider `CC(C)c1c(O)cc(/C=C/c2cscn2)cc1O` [No 4], for which the IC50 in test [1] (Mus musculus) is > 1 µM. Also, the “Inhibitory activity … (%)” value in test [2] is <50%.
As for `Oc1cc(/C=C/c2ccsc2)cc(O)c1C1CC1` [No 5], the IC50 in test [1] (Mus musculus) is > 1 µM. In test [2], the “Inhibitory activity … (%)” value is <50%.
For `Oc1cc(/C=C/c2ccoc2)cc(O)c1C1CC1` [No 6], the IC50 in test [1] (Mus musculus) is > 1 µM. In test [2], the “Inhibitory activity … (%)” value is <50%.
In the same order, the values of `Oc1cc(/C=C/c2ccsc2)cc(O)c1C1=CCCC1` [No 7] are > 1 µM and <50%.
`Oc1cc(/C=C/c2cscn2)cc(O)c1C1=CCCC1` [No 9]: the IC50 in test [1] is > 1 µM. Also, the “Inhibitory activity … (%)” value in test [2] is listed as <50%.
As for `Oc1cc(/C=C/c2cncs2)cc(O)c1C1=CCCC1` [No 10], the IC50 in test [1] is > 1 µM. In addition, the “Inhibitory activity … (%)” value in test [2] was <50%.
On to `Oc1cc(/C=C/c2ccsc2)cc(O)c1C1CCCC1` [No 11], for which the IC50 in test [1] (Mus musculus) was > 1 µM. The “Inhibitory activity … (%)” value in test [2] is listed as <50%.
With `Oc1cc(/C=C/c2cscn2)cc(O)c1C1CCCC1` [No 12], the half-maximal inhibitory concentration (IC50) in test [1] (Mus musculus) is > 1 µM. In addition, the “Inhibitory activity … (%)” value in test [2] is <50%.
On to `Oc1cc(/C=C/c2ccoc2)cc(O)c1Br` [No 13], for which, in test [1] (Mus musculus), the IC50 is > 1 µM. The “Inhibitory activity … (%)” value in test [2] is <50%.
On the same counts, the results for `C=C(C)c1c(O)cc(/C=C/c2cscn2)cc1O` [No 16] are > 1 µM and <50%.
Take `C=C(C)c1c(O)cc(/C=C/c2cncs2)cc1O` [No 17]: the IC50 in test [1] (Mus musculus) is > 1 µM. Also, the “Inhibitory activity … (%)” value in test [2] is <50%.
Turning to `COc1cc(/C=C/c2ccsc2)cc(O)c1C1CC1` [No 18], the IC50 in test [1] (Mus musculus) is > 1 µM. Further, the “Inhibitory activity … (%)” value in test [2] is reported as >50%.
Regarding `COc1cc(/C=C/c2ccsc2)cc(O)c1Br` [No 19], the IC50 in test [1] (Mus musculus) was > 1 µM. For the same compound, the “Inhibitory activity … (%)” value in test [2] is >50%.
For `COc1cc(/C=C/c2ccoc2)cc(O)c1C(C)C` [No 20], in test [1], the IC50 was > 1 µM. In addition, in test [2], the “Inhibitory activity … (%)” value is listed as >50%.
